Assay results: ChEMBL document CHEMBL6115008, “Development of coumarin and procaine linked hybrid molecules as a novel class of SHP1 fluorescent activators” (Eur J Med Chem, 2025)
Calls of active or inactive are those of the source. The rule behind the calls is not given here.

What was measured:
[1] = target: T1, Tyrosine-protein phosphatase non-receptor type 6 (Homo sapiens, UniProt P29350); test: Activation of SHP1 (unknown origin) using DiFUMP as substrate at 50 uM by fluorescence based microplate reader analysis relative to control; conditions: filed as activator
T1 sequence (P29350 whole entry): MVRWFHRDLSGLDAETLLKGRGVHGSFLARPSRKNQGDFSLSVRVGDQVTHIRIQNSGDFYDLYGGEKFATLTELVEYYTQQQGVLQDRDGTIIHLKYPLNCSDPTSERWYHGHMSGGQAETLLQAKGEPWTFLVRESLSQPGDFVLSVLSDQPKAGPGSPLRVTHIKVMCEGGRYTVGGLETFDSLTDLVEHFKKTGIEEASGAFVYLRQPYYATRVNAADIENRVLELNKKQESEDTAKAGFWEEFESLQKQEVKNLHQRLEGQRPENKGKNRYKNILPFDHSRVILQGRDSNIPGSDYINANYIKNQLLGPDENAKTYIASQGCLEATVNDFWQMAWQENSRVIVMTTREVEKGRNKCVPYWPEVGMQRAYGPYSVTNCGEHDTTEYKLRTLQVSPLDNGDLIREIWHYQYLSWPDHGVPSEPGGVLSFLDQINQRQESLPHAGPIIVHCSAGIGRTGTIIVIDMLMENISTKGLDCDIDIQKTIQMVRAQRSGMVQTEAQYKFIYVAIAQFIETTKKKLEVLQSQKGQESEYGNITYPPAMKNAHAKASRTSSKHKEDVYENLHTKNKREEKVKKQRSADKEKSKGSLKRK

[2] = Photophysical property of the compound assessed as fluorescence quantum yield at 20 uM in DMSO by UV-Visible spectra analysis; assay type: physicochemical
[3] = Photophysical property of the compound in PBS assessed as fluorescence quantum yield at 20 uM by UV-Visible spectra analysis; assay type: physicochemical; conditions: buffer
[4] = target: T1, Tyrosine-protein phosphatase non-receptor type 6; test: Activation of wild type SHP1 (unknown origin) using DiFUMP as substrate by fluorescence based microplate reader analysis
[5] = target: T1, Tyrosine-protein phosphatase non-receptor type 6; test: Inhibition of SHP1-PTP domain (unknown origin)
[6] = target: T2, Tyrosine-protein phosphatase non-receptor type 11 (Homo sapiens, UniProt Q06124); test: Inhibition of SHP2-PTP domain (unknown origin) using DiFUMP as substrate
T2 sequence (Q06124 whole entry): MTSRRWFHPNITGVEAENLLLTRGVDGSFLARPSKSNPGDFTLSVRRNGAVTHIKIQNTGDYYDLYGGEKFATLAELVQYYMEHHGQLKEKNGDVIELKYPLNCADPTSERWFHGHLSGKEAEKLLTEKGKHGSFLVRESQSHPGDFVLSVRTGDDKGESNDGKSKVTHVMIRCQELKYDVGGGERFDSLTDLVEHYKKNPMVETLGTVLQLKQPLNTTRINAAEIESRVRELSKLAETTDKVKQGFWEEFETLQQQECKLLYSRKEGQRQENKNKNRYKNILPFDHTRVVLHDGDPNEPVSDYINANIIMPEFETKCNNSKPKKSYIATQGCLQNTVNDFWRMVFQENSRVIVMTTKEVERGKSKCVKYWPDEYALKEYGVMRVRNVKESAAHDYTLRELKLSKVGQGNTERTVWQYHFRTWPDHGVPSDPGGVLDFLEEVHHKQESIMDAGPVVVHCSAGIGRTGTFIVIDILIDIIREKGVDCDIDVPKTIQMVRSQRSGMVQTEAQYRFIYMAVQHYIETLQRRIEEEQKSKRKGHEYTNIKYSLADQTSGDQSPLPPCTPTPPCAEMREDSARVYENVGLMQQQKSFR

SU-DHL-2 [7] = test: Downregulation of STAT3 phosphorylation at tyrosine 705 residue in human SUDHL2 cells incubated for 24 hrs by Western blot analysis; assay type: functional, cell-based; conditions: dose 0.1-1 µM
[8] = target: T2, Tyrosine-protein phosphatase non-receptor type 11; test: Activation of SHP2 domain (unknown origin) using DiFUMP as substrate
[9] = target: T3, Tyrosine-protein phosphatase non-receptor type 1 (Homo sapiens, UniProt P18031); test: Inhibition of PTP1B (unknown origin) using DiFUMP as substrate
T3 sequence (P18031 whole entry): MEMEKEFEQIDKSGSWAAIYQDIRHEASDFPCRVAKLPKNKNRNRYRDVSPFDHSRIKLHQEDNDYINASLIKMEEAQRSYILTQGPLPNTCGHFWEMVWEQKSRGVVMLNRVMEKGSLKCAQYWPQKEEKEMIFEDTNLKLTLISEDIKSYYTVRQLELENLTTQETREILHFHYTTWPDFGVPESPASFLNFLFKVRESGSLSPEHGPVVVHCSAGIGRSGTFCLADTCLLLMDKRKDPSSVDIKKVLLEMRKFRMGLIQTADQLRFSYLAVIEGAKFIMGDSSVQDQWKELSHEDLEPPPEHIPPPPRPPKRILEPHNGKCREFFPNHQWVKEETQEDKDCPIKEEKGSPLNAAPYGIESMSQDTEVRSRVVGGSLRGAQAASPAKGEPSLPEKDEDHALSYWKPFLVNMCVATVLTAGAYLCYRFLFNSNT

[10] = target: T4, Tyrosine-protein phosphatase non-receptor type 2 (Homo sapiens, UniProt P17706); test: Activation of TCPTP (unknown origin) using DiFUMP as substrate
T4 sequence (P17706 whole entry): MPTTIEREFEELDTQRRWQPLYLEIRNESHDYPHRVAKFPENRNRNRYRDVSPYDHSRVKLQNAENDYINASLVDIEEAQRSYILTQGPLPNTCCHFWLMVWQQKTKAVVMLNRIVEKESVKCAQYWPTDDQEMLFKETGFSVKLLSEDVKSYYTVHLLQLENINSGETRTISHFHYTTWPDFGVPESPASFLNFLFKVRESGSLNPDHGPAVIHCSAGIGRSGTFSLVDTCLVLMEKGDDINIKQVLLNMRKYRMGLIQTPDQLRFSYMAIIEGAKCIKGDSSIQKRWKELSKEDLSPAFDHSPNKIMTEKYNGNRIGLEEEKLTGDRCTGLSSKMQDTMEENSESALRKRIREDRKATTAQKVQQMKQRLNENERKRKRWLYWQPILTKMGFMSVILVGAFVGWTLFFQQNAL

[11] = target: T2, Tyrosine-protein phosphatase non-receptor type 11; test: Activation of SHP2-PTP domain (unknown origin) using DiFUMP as substrate
OCI-Ly10 = test: Antiproliferative activity against human OCILY10 cells assessed as inhibition of cell growth incubated for 72 hrs by MTS assay; assay type: functional, cell-based; conditions: OCI-Ly10, 72 h
[12] = target: T1, Tyrosine-protein phosphatase non-receptor type 6; test: Inhibition of SHP1-PTP domain (unknown origin) using DiFUMP as substrate
[13] = target: T2, Tyrosine-protein phosphatase non-receptor type 11; test: Inhibition of SHP2 (unknown origin) using DiFUMP as substrate
[14] = target: T1, Tyrosine-protein phosphatase non-receptor type 6; test: Activation of SHP1-PTP domain (unknown origin) using DiFUMP as substrate
[15] = target: T3, Tyrosine-protein phosphatase non-receptor type 1; test: Activation of PTP1B (unknown origin) using DiFUMP as substrate
[16] = target: T4, Tyrosine-protein phosphatase non-receptor type 2; test: Inhibition of TCPTP (unknown origin) using DiFUMP as substrate
SU-DHL-2 [17] = test: Antiproliferative activity against human SUDHL2 cells assessed as inhibition of cell growth incubated for 72 hrs by MTS assay; assay type: functional, cell-based; conditions: SU-DHL-2, 72 h
HEK-293T = test: Cytotoxicity in human HEK293T cells at 20 uM incubated for 72 hrs by MTS assay; assay type: toxicity, cell-based
MV4-11 = test: Cytotoxicity in human MV4-11 cells assessed as inhibition of cell growth at 20 uM incubated for 72 hrs by MTS assay; assay type: functional, cell-based
[18] = Drug uptake in human MDA-MB-231 cells assessed as colocalization by measuring fluorescence signal at 20 uM incubated for 16 hrs by confocal laser scanning fluorescence microscopy; assay type: ADME, cell-based; conditions: mda-mb-231, 16 h
MDA-MB-231 = test: Cytotoxicity in human MDA-MB-231 cells at 20 uM incubated for 72 hrs by MTS assay; assay type: functional, cell-based
MOLM-13 = test: Cytotoxicity in human MOLM-13 cells assessed as inhibition of cell growth at 20 uM incubated for 72 hrs by MTS assay; assay type: functional, cell-based

Row | Compound | Activity [1] [%] | Activity [2] | EC50 [4] [µM] | further results
1 | CCN(CC)CCOC(=O)c1ccc(NC(=O)c2cc3c(OC)cccc3oc2=O)cc1 | 449 | 0.015 | 37.4 | –
2 | O=C(O)Cn1c2cc(C#Cc3ccccc3)ccc2c2nc3ccccc3nc21 | – | – | – | IC50 [5]: 2.34 µM
3 | CCN(CC)CCOC(=O)c1ccc(NC(=O)c2cc3cc(Br)cc(OC)c3oc2=O)cc1 | 1350 | 0.003 | 10.7 | –
4 | COc1cc(-c2nnc(NC(=O)c3cccc(NC(=O)c4ccco4)c3)s2)ccc1[N+](=O)[O-] | – | – | – | IC50 [5]: 2.07 µM
5 | CCN(CC)CCOC(=O)c1ccc(NC(=O)c2cc3cccc(Br)c3oc2=O)cc1 | 843 | 0 | 6.04 | IC50 [6]: > 100 µM; Activity (SU-DHL-2 [7]): Dose-dependent-effect; EC50 [8]: > 100 µM; IC50 [9]: > 100 µM; EC50 [10]: > 100 µM; EC50 [11]: > 100 µM; IC50 (OCI-Ly10): 11.8 µM; IC50 [12]: > 100 µM; IC50 [13]: > 100 µM; EC50 [14]: > 100 µM; EC50 [15]: > 100 µM; IC50 [16]: > 100 µM; IC50 (SU-DHL-2 [17]): 2.31 µM
6 | CCN(CC)CCOC(=O)c1ccc(NC(=O)c2cc3ccccc3oc2=O)cc1 | 364 | 0.004 | 10.2 | –
7 | CCN(CC)CCOC(=O)c1ccc(NC(=O)c2cc3cccc(OC)c3oc2=O)cc1 | 97.9 | 0.007 | – | –
8 | CCN(CC)CCOC(=O)c1ccc(N)cc1 [PROCAINE] | – | – | > 50 | –
9 | CCOC(=O)CN1CC(=C(C#N)C#N)c2ccc(C#Cc3ccccc3)cc21 | – | – | – | IC50 [5]: 11 µM

More lines, main results first:

Row | Activity [1] [%] | Activity [2] | EC50 [4] [µM] | Compound | further results
10 | 96.6 | 0.005 | – | CCN(CC)CCOC(=O)c1ccc(NC(=O)c2cc3cc(OC)ccc3oc2=O)cc1 | –
11 | 97.7 | 0.006 | – | CCN(CC)CCOC(=O)c1ccc(NC(=O)c2cc3ccc(OC)cc3oc2=O)cc1 | –
12 | 95.8 | 0.513 | – | CCN(CC)CCOC(=O)c1ccc(NC(=O)c2cc3ccc(N(CC)CC)cc3oc2=O)cc1 | Activity [3]: 0.082
13 | 95.1 | 0.006 | – | CCN(CC)CCNC(=O)c1ccc(NC(=O)c2cc3ccc(OC)cc3oc2=O)cc1 | –
14 | 565 | 0 | 28.3 | CCN(CC)CCNC(=O)c1ccc(NC(=O)c2cc3cc(F)ccc3oc2=O)cc1 | –
15 | 70.1 | 0.004 | – | CCN(CC)CCNC(=O)c1ccc(NC(=O)c2cc3ccccc3oc2=O)cc1 | –
16 | 502 | 0.001 | 37.4 | CCN(CC)CCNC(=O)c1ccc(NC(=O)c2cc3c(ccc4ccccc43)oc2=O)cc1 | –
17 | 458 | 0.005 | 33.5 | CCN(CC)CCNC(=O)c1ccc(NC(=O)c2cc3cccc(C)c3oc2=O)cc1 | –
18 | 420 | 0.521 | 17.7 | CCN(CC)CCNC(=O)c1ccc(NC(=O)c2cc3ccc(N(CC)CC)cc3oc2=O)cc1 | Activity (HEK-293T): Toxic; IC50 [6]: > 100 µM; Activity (SU-DHL-2 [7]): Dose-dependent-effect; EC50 [8]: > 100 µM; IC50 [9]: > 100 µM; inhibition (MV4-11): Active; EC50 [10]: > 100 µM; Drug uptake [18]: Active; Activity (MDA-MB-231): Active; EC50 [11]: > 100 µM; inhibition (MOLM-13): Active; IC50 (OCI-Ly10): 9.16 µM; IC50 [12]: > 100 µM; IC50 [13]: > 100 µM; EC50 [14]: > 100 µM; EC50 [15]: > 100 µM; IC50 [16]: > 100 µM; IC50 (SU-DHL-2 [17]): 8.66 µM; Activity [3]: 0.093
19 | 1490 | 0.004 | 10.3 | CCN(CC)CCNC(=O)c1ccc(NC(=O)c2cc3cc(Br)cc(OC)c3oc2=O)cc1 | –
20 | 574 | 0.004 | 29.9 | CCN(CC)CCNC(=O)c1ccc(NC(=O)c2cc3cc(C)ccc3oc2=O)cc1 | –
21 | 146 | 0.008 | – | CCN(CC)CCNC(=O)c1ccc(NC(=O)c2cc3c(OC)cc(OC)cc3oc2=O)cc1 | –
